# Test: storage stability of the amorphous form, followed by XRPD
# Format: physicochemical
# Conditions: storage at 25° C. and 52% relative humidity (RH) for 24 days; XRPD pattern similar to FIG. 5 (sample of Example 3)
# Description: XRPD of the samples were determined by using a Panalytical X'Pert Pro X-Ray Powder Diffractometer in the range 3-40 degree 2 theta and under a tube voltage and current of 45 Kv and 40 mA, respectively. Copper radiation of wavelength 1.54 angstrom and Xceletor detector was used.
smiles,measurement,value
"Cl.N#Cc1ccc2[nH]cc(CCCCN3CCN(c4ccc5oc(C(N)=O)cc5c4)CC3)c2c1 [amorphous vilazodone hydrochloride, 5-{4-[4-(5-cyano-1H-indo1-3-yl)butyl]piperazin-1-yl}-1-benzofuran-2-carboxamide hydrochloride]",polymorphic stability on storage (XRPD),stable and does not convert to any other polymorphic form

# Reference: patent publication US20140378472A1, “AMORPHOUS VILAZODONE HYDROCHLORIDE, A PROCESS FOR ITS PREPARATION AND PHARMACEUTICAL COMPOSITIONS THEREOF” (RANBAXY LABORATORIES LIMITED, priority 2011, published 2014)
